Values quoted from earlier work as cited in PubChem BioAssay AID1259409 (Chemical Carcinogenesis Research Information System (CCRIS), 2018).

Test system: rodent chemically induced tumor inhibition, incidence and multiplicity
Assay: CCRIS tumor inhibitor studies

For `CC(C)C[C@H]1C(=O)N2CCC[C@H]2[C@]2(O)O[C@](NC(=O)[C@@H]3C=C4c5cccc6[nH]c(Br)c(c56)C[C@H]4N(C)C3)(C(C)C)C(=O)N12`, the “tumour outcome (control, treated, inhibition, significance)” value (Carcinogen: N-METHYL-N-NITROSOUREA, 684-93-5, Dose [Inhibitor]: 0.4 MG/100 G BW 1/D FOR 129 D BEGINNING AT 60 D OF AGE (STUDY DURATION: 223 D), Route [Inhibitor]: SUBCUTANEOUS, Species: RAT, Strain/Sex: SPRAGUE-DAWLEY/FEMALE, Target Tissue: Type of Lesion: MAMMARY GLAND: NOT SPECIFIED, Dose [Carcinogen]: 2.5 MG/100 G BW ONCE AT 50 D AND ONCE AT 57 D OF AGE, Promoter: NONE USED) is listed as 73%, 37%, 49%, p<0.005, the “tumour outcome (control, treated, inhibition, significance)” value (Carcinogen: N-METHYL-N-NITROSOUREA, 684-93-5, Dose [Inhibitor]: 0.4 MG/100 G BW 1/D FOR 175 D BEGINNING AT 60 D OF AGE (STUDY DURATION: 185 D), Route [Inhibitor]: SUBCUTANEOUS, Species: RAT, Strain/Sex: SPRAGUE-DAWLEY/FEMALE, Target Tissue: Type of Lesion: MAMMARY GLAND: NOT SPECIFIED, Dose [Carcinogen]: 1.25 MG/100 G BW ONCE AT 50 D AND ONCE AT 57 D OF AGE, Promoter: NONE USED) is listed as 27%, 13%, 52%, not significant and the “tumour outcome (control, treated, inhibition, significance)” value (Carcinogen: N-METHYL-N-NITROSOUREA, 684-93-5, Dose [Inhibitor]: 0.4 MG/100 G BW 1/D PLUS 328 MG RETINYL ACETATE/KG DIET FOR 175 D BEGINNING AT 60 D OF AGE (STUDY DURATION: 185 D), Route [Inhibitor]: SUBCUTANEOUS, Species: RAT, Strain/Sex: SPRAGUE-DAWLEY/FEMALE, Target Tissue: Type of Lesion: MAMMARY GLAND: NOT SPECIFIED, Dose [Carcinogen]: 1.25 MG/100 G BW ONCE AT 50 D AND ONCE AT 57 D OF AGE, Promoter: NONE USED) is listed as 27%, 0%, 100%, p<0.01. The “tumour outcome (control, treated, inhibition, significance)” value (Carcinogen: N-METHYL-N-NITROSOUREA, 684-93-5, Dose [Inhibitor]: 0.4 MG/100 G BW 1/D PLUS 328 MG RETINYL ACETATE/KG OF DIET, FOR 129 D BEGINNING AT 60 D OF AGE (STUDY DURATION: 223 D), Route [Inhibitor]: SUBCUTANEOUS, Species: RAT, Strain/Sex: SPRAGUE-DAWLEY/FEMALE, Target Tissue: Type of Lesion: MAMMARY GLAND: NOT SPECIFIED, Dose [Carcinogen]: 2.5 MG/100 G BW ONCE AT 50 D AND ONCE AT 57 D OF AGE, Promoter: NONE USED) was 73%, 7%, 90%, p<0.005, the outcome (Carcinogen: N-METHYL-N-NITROSOUREA, 684-93-5, Dose [Inhibitor]: 400 UG/100 G BW TOGETHER WITH 25 UG/100 G BW TAMOXIFEN 1/D FOR 6 MO BEGINNING 3 D POST CARCINOGEN DOSE, DOSAGE OF BOTH R, Route [Inhibitor]: SUBCUTANEOUS, Species: RAT, Strain/Sex: SPRAGUE-DAWLEY/FEMALE, Target Tissue: Type of Lesion: MAMMARY GLAND: CARCINOMA, Dose [Carcinogen]: 2.5 MG/100 G BW ONCE AT 50 D AND ONCE AT 57 D OF AGE, Promoter: NONE USED) was 88%, 3%, 97%, p<0.001 (at 4 mo post carcinogen dose); 88%, 28%, 68%, not calcula and the outcome (Carcinogen: N-METHYL-N-NITROSOUREA, 684-93-5, Dose [Inhibitor]: 400 UG/100 G BW TOGETHER WITH 25 UG/100 G BW TAMOXIFEN 1/D FOR 6 MO PLUS 328 MG RETINYL ACETATE/KG DIET FOR 6 MO, DOSAGE, Route [Inhibitor]: SUBCUTANEOUS, Species: RAT, Strain/Sex: SPRAGUE-DAWLEY/FEMALE, Target Tissue: Type of Lesion: MAMMARY GLAND: CARCINOMA, Dose [Carcinogen]: 2.5 MG/100 G BW ONCE AT 50 D AND ONCE AT 57 D OF AGE, Promoter: NONE USED) was 88%, 0%, 100%, p<0.001 (at 4 mo post carcinogen dose); 88%, 7%, 92%, not calcula. For the same compound, the outcome (Carcinogen: N-ethyl-N'-nitro-N-nitrosoguanidine (ENNG), 4245-77-6, Dose [Inhibitor]: 1 mg/kg bw 5 x a wk up to 14.5 mo of age (half a mo before termination of experiment), Route [Inhibitor]: Subcutaneous, Species: Rat, Strain/Sex: Crj:Donryu/female, Target Tissue: Type of Lesion: Uterus: Adenocarcinoma, Dose [Carcinogen]: 20 mg/kg, Promoter: None) was 9/25 (36%), 3/23 (13%), p<0.05, the “tumour outcome (control, treated, inhibition, significance)” value (Carcinogen: NONE USED, Dose [Inhibitor]: 0.1 MG IN SALINE 1/D FOR 12 MO BEGINNING AT 2 MO OF AGE (STUDY DURATION: 22 MO), Route [Inhibitor]: SUBCUTANEOUS, Species: MOUSE, Strain/Sex: C3H/FEMALE, Target Tissue: Type of Lesion: MAMMARY GLAND: CARCINOMA, Promoter: NONE USED) was 24/90 (27%), 1/90 (1%), 96%, p<0.001 and the “tumour outcome (control, treated, inhibition, significance)” value (Carcinogen: NONE USED, Dose [Inhibitor]: 0.1 MG IN SALINE 1/D FOR 30 D ON ALTERNATE MO BEGINNING AT 7 MO OF AGE FOR 12 MO (STUDY DURATION: 12 MO), Route [Inhibitor]: SUBCUTANEOUS, Species: MOUSE, Strain/Sex: C3H/FEMALE, Target Tissue: Type of Lesion: MAMMARY GLAND: CARCINOMA, Promoter: NONE USED) was 36/70 (51%), 9/70 (13%), 74%, p<0.01. For the same compound, the “tumour outcome (control, treated, inhibition, significance)” value (Carcinogen: NONE USED, Dose [Inhibitor]: 0.1 MG/D BEGINNING AT 1 MO OF AGE FOR 16 MO (STUDY DURATION: 16 MO), Route [Inhibitor]: SUBCUTANEOUS, Species: MOUSE, Strain/Sex: C3H/FEMALE, Target Tissue: Type of Lesion: MAMMARY GLAND: TUMOR, Promoter: NONE USED) was 24/29 (83%), 13/28 (46%), 44%, p<0.01, the “tumour outcome (control, treated, inhibition, significance)” value (Carcinogen: NONE USED, Dose [Inhibitor]: 0.5 MG IN 0.05 ML OLIVE OIL 1/D FOR 7 WK BEGINNING AT 4 WK OF AGE (STUDY DURATION: 26 MO), Route [Inhibitor]: SUBCUTANEOUS, Species: RAT, Strain/Sex: SPRAGUE-DAWLEY/FEMALE, Target Tissue: Type of Lesion: MAMMARY GLAND: TUMOR, Promoter: NONE USED) was 70%, 32%, 54%, p<0.05 and the “tumour outcome (control, treated, inhibition, significance)” value (Carcinogen: NONE USED, Dose [Inhibitor]: 0.5 MG IN 0.05 ML OLIVE OIL 1/D FOR 7 WK BEGINNING AT 11 WK OF AGE (STUDY DURATION: 26 MO), Route [Inhibitor]: SUBCUTANEOUS, Species: RAT, Strain/Sex: SPRAGUE-DAWLEY/FEMALE, Target Tissue: Type of Lesion: MAMMARY GLAND: TUMORS, Promoter: NONE USED) was 70%, 55%, 21%, p<0.05. For the same compound, the “tumour outcome (control, treated, inhibition, significance)” value (Carcinogen: NONE USED, Dose [Inhibitor]: 8.5 MG/KG 1/D FOR 4 D TO PREGNANT MICE ON D 12 TO D 15 OF PREGNANCY, FEMALE OFFSPRING OBSERVED FOR 10 MO (STUDY DURATION, Route [Inhibitor]: SUBCUTANEOUS, Species: MOUSE, Strain/Sex: SHN/FEMALE, Target Tissue: Type of Lesion: MAMMARY GLAND: NOT SPECIFIED, Promoter: NONE USED) was 33/38 (87%), 10/13 (77%), 11%, not calculated, the “tumour outcome (control, treated, inhibition, significance)” value (Carcinogen: NONE USED, Dose [Inhibitor]: 40 MG/KG 1/D FOR FIRST 5 D OF POSTNATAL LIFE, OBSERVED FOR 10 MO (STUDY DURATION: 10 MO), Route [Inhibitor]: SUBCUTANEOUS, Species: MOUSE, Strain/Sex: SHN/FEMALE, Target Tissue: Type of Lesion: MAMMARY GLAND: NOT SPECIFIED, Promoter: NONE USED) was 33/38 (87%), 17/17 (100%), -15%, not significant and the “tumour outcome (control, treated, inhibition, significance)” value (Carcinogen: NONE USED, Dose [Inhibitor]: 100 UG OF 1 MG/ML DISSOLVED IN A MINIMAL AMOUNT OF ETHANOL AND SUSPENDED IN 0.9% NACL 1/D FROM D 7 TO 21 OF PREGNANCY (S, Route [Inhibitor]: SUBCUTANEOUS, Species: MOUSE, Strain/Sex: GR/FEMALE, Target Tissue: Type of Lesion: MAMMARY GLAND: TUMOR, Promoter: NONE USED) was 39/44 (89%), 24/43 (56%), 37%, p<0.05.
